{
  "source": "patent US5574009A",
  "about": "“Method of stimulating myelination of cells” (Trustees of the University Of Pennsylvania, priority 1994, dated 1996)",
  "tested_on": "neonatal rat optic nerve cultures",
  "experiment": "Mitomycin C treatment of optic nerve cultures",
  "assay_type": "cell-based",
  "conditions": "25 μg/ml for 30 minutes, PND-1, then 24 or 48 hours",
  "protocol": "A stock solution of 0.5 mg/ml mitomycin C (Sigma) in HBSS (Gibco) was prepared and stored at 4° C. in the dark. Cultures were treated with 25 μg/ml mitomycin C diluted in N2/0.5% FCS for 30 minutes at 37° C. in the dark. The cultures were washed twice with N2/0.5% FCS and cultured for an additional 24 or 48 hours.\nTo test whether inhibition of proliferation per se affected the timing of GalC(+) appearance, optic nerve cultures prepared on PND-1 were treated with mitomycin C. After plating, the cells were incubated with 25 μg/ml mitomycin C for 30 minutes. After washing, the cultures were carried for an additional 24 or 48 hours.",
  "data": [
    {"smiles": "CO[C@@]12[C@H](COC(N)=O)C3=C(C(=O)C(C)=C(N)C3=O)N1C[C@@H]1N[C@@H]12", "note": "[mitomycin C]", "values": [
      {"measurement": "numbers of A2B5(+) cells", "value": "Decreased numbers of A2B5(+) cells"},
      {"measurement": "proportion of GalC(+) cells", "value": "without a concomitant increase in the proportion of GalC(+) cells"}
    ]}
  ]
}
